Key:
Assay type in all cases: cell-based, Enterococcus faecium
[1] = system: E. faecium D344SRF, Wild Type; experiment: MIC by broth microdilution, Wild Type; conditions: strain Wild Type; BHI broth microdilution, 37 °C, 20 h, read by eye; n=3
Description: (§1) E. faecium strains were streaked fresh from −80 °C stored glycerol stocks onto brain heart infusion (BHI) agar plates and incubated for 18 h at 37 °C. Strains harboring the plasmid derivatives were grown under antibiotic pressure on agar plates containing kanamycin at 1500 µg/ml. A single colony was inoculated into BHI or BHI-kanamycin (1500 µg/ml) for overnight cultures (18 h).
(§2) MIC determination was performed using a standard broth microdilution technique in duplicate from independent cultures. Overnight cultures were inoculated into 3 ml of BHI or BHI-kanamycin (1500 µg/ml) broth in a dilution of 1:100 and incubated until an OD600 of ~0.5 was reached. Cultures were diluted 1:1000 and inoculated into the 96-well plates with the corresponding antibiotics to be tested. Plates were incubated at 37 °C for 20 h and read by eye. The MICs were defined as the lowest antibiotic concentration that inhibited growth.

[2] = system: E. faecium D344SRF pCWR624Δpbp5_pbp5_V4; experiment: Disk diffusion assay, pbp5_V4; conditions: strain pbp5_V4 (D530A_L533A_W457A); 37 °C, 24 h; n=3
Description: (§3) The synthetic genes were purchased from GeneWiz (South Plainfield, NJ). The ribosome binding site sequence AGGAGG (Shine-Dalgarno), and a string of five A’s followed by the sequence […], that corresponds to the first 15 bp found in pbp5 from E. faecium C68 were added upstream of the START codon. The terminator sequence […] was added downstream of the STOP codon. BamHI restriction sites were added to the flanking 5′ and 3′ ends. The synthetic genes were inserted into the vector pCWR624Δpbp5. This vector was derived from pCWR624[10], in which the pbp5 gene from D366 was excised by digestion with BamHI followed by re-ligation of the vector, allowing subsequent insertion of modified synthetic pbp5s into the BamHI site downstream of ftsWEfm and psr from E. faecium C68[10]. The synthetic genes were inserted in a BamHI site located downstream of psr. The proper orientation was confirmed by PCR amplification using the forward primer OR_pbp5_FOR_1 (5′-[…]-3′) and the reverse primer OR_pbp5_REV_1 (5′-[…]-3′). Plasmids were sequence verified for the specific binding site mutations. The resulting constructions were electroporated into the natural pbp5(-) mutant E. faecium D344SRF with a selection on brain heart infusion agar (BHI) plates containing kanamycin (1500 µg/ml).
as §1
(§4) Antibiotic disks used were manufactured by BD BBL^TM. Disk diffusion assays were performed according to the Clinical and Laboratory Standards Institute (CLSI) guidance. Overnight cultures were inoculated into 3 ml of BHI or BHI-kanamycin (1500 µg/ml) broth with a dilution of 1:100 and incubated until an OD600 of ~0.5 was reached. […] The plates were incubated at 37 °C and the zones of inhibition were measured after 24 h. […]

[3] = system: E. faecium D344SRF pCWR624Δpbp5_pbp5_V3; experiment: Disk diffusion assay, pbp5_V3; conditions: strain pbp5_V3 (loop 625-631); 37 °C, 24 h; n=3
Description: as §3, §1, §4

[4] = system: E. faecium D344SRF, Wild Type; conditions: strain Wild Type; disks Ampicillin 10 μg, Penicillin 10 U, Ceftriaxone 30 μg; BHI agar, 37 °C, 24 h; n=3
Description: as §1
Antibiotic disks used were manufactured by BD BBL^TM. Disk diffusion assays were performed according to the Clinical and Laboratory Standards Institute (CLSI) guidance. Overnight cultures were inoculated into 3 ml of BHI or BHI-kanamycin (1500 µg/ml) broth with a dilution of 1:100 and incubated until an OD600 of ~0.5 was reached. The OD600 was adjusted to 0.01 to get the inoculum suspension. […] The plates were incubated at 37 °C and the zones of inhibition were measured after 24 h. All experiments were conducted in triplicate.

[5] = system: E. faecium D344SRF pCWR624Δpbp5_pbp5_V1; experiment: Disk diffusion assay, pbp5_V1; conditions: strain pbp5_V1 (N523A); 37 °C, 24 h; n=3
Description: as §3, §1, §4

[6] = system: E. faecium D344SRF pCWR624Δpbp5_pbp5_V2; experiment: Disk diffusion assay, pbp5_V2; conditions: strain pbp5_V2 (N523A_Q627A); 37 °C, 24 h; n=3
Description: as §3, §1, §4

[7] = system: E. faecium D344SRF pCWR624 (PBP5 plasmid); experiment: Disk diffusion assay, pCWR624; conditions: strain pCWR624; 37 °C, 24 h; n=3
Description: as §3, §1, §4

[8] = system: E. faecium D344SRF pCWR624Δpbp5 (empty plasmid); experiment: Disk diffusion assay, pCWR624Δpbp5; conditions: strain pCWR624Δpbp5; 37 °C, 24 h; n=3
Description: as §3, §1, §4

[9] = system: E. faecium D344SRF pCWR624Δpbp5_pbp5_V1; experiment: MIC by broth microdilution, pbp5_V1; conditions: strain pbp5_V1 (N523A); 37 °C, 20 h; n=3
Description: as §3, §1
as §2, with “The MICs were defined as the lowest antibiotic concentration that inhibited growth.” left out

[10] = system: E. faecium D344SRF pCWR624Δpbp5_pbp5_V6; experiment: Disk diffusion assay, pbp5_V6; conditions: strain pbp5_V6 (E284A_E291A_S294A_N295A); 37 °C, 24 h; n=3
Description: as §3, §1, §4

[11] = system: E. faecium D344SRF pCWR624Δpbp5_pbp5_V6; experiment: MIC by broth microdilution, pbp5_V6; conditions: strain pbp5_V6 (E284A_E291A_S294A_N295A); 37 °C, 20 h; n=3
Description: as §3, §1
as §2, with “The MICs were defined as the lowest antibiotic concentration that inhibited growth.” left out

[12] = system: E. faecium D344SRF pCWR624Δpbp5_pbp5_V3; experiment: MIC by broth microdilution, pbp5_V3; conditions: strain pbp5_V3 (loop 625-631); 37 °C, 20 h; n=3
Description: as §3, §1
as §2, with “The MICs were defined as the lowest antibiotic concentration that inhibited growth.” left out

[13] = system: E. faecium D344SRF pCWR624Δpbp5_pbp5_V5; experiment: Disk diffusion assay, pbp5_V5; conditions: strain pbp5_V5 (Q396A_E397A); 37 °C, 24 h; n=3
Description: as §3, §1, §4

[14] = system: E. faecium D344SRF pCWR624Δpbp5 (empty plasmid); experiment: MIC by broth microdilution, pCWR624Δpbp5; conditions: strain pCWR624Δpbp5; 37 °C, 20 h; n=3
Description: as §3, §1
as §2, with “The MICs were defined as the lowest antibiotic concentration that inhibited growth.” left out

[15] = system: E. faecium D344SRF pCWR624Δpbp5_pbp5_V5; experiment: MIC by broth microdilution, pbp5_V5; conditions: strain pbp5_V5 (Q396A_E397A); 37 °C, 20 h; n=3
Description: as §3, §1
as §2, with “The MICs were defined as the lowest antibiotic concentration that inhibited growth.” left out

[16] = system: E. faecium D344SRF pCWR624 (PBP5 plasmid); experiment: MIC by broth microdilution, pCWR624; conditions: strain pCWR624; 37 °C, 20 h; n=3
Description: as §3, §1
as §2, with “The MICs were defined as the lowest antibiotic concentration that inhibited growth.” left out

[17] = system: E. faecium D344SRF pCWR624Δpbp5_pbp5_V4; experiment: MIC by broth microdilution, pbp5_V4; conditions: strain pbp5_V4 (D530A_L533A_W457A); 37 °C, 20 h; n=3
Description: as §3, with “The resulting constructions were electroporated into the natural pbp5(-) mutant E. faecium D344SRF with a selection on brain heart infusion agar (BHI) plates containing kanamycin (1500 µg/ml).” left out
MIC determination was performed using a standard broth microdilution technique in duplicate from independent cultures. […] Plates were incubated at 37 °C for 20 h and read by eye. […]

[18] = system: E. faecium D344SRF pCWR624Δpbp5_pbp5_V2; experiment: MIC by broth microdilution, pbp5_V2; conditions: strain pbp5_V2 (N523A_Q627A); 37 °C, 20 h; n=3
Description: as §1

CC1(C)S[C@@H]2[C@H](NC(=O)[C@H](N)c3ccccc3)C(=O)N2[C@H]1C(=O)O [Ampicillin]
MIC (µg/ml) [Range] [1]: 0.39 [0.39-0.78] µg/ml | Zone Size (mm) [Range] [2]: 32 [32] mm | Zone Size (mm) [Range] [3]: 32 [30-32] mm | Zone Size (mm) [Range] [4]: 32 [30-32] mm | Zone Size (mm) [Range] [5]: 16 [14-16] mm | Zone Size (mm) [Range] [6]: 26 [26-28] mm | Zone Size (mm) [Range] [7]: 0 [0] mm | Zone Size (mm) [Range] [8]: 30 [30-32] mm | MIC (µg/ml) [Range] [9]: 100 [50-100] µg/ml | Zone Size (mm) [Range] [10]: 0 [0-10] mm | MIC (µg/ml) [Range] [11]: 100 [100] µg/ml | MIC (µg/ml) [Range] [12]: < 0.19 [<0.19-0.39] µg/ml | Zone Size (mm) [Range] [13]: 0 [0-10] mm | MIC (µg/ml) [Range] [14]: 0.78 [0.39-1.56] µg/ml | MIC (µg/ml) [Range] [15]: 100 [100] µg/ml | MIC (µg/ml) [Range] [16]: 100 [100->200] µg/ml

CC1(C)S[C@@H]2[C@H](NC(=O)Cc3ccccc3)C(=O)N2[C@H]1C(=O)O [Penicillin, penicillin G]
MIC (µg/ml) [Range] [1]: 0.39 [0.39-0.78] µg/ml | Zone Size (mm) [Range] [2]: 32 [30-32] mm | Zone Size (mm) [Range] [3]: 32 [30-32] mm | Zone Size (mm) [Range] [4]: 28 [28-32] mm | Zone Size (mm) [Range] [5]: 0 [0] mm | Zone Size (mm) [Range] [6]: 26 [26-28] mm | MIC (µg/ml) [Range] [17]: 0.39 [0.39] µg/ml | Zone Size (mm) [Range] [7]: 0 [0] mm | Zone Size (mm) [Range] [8]: 28 [28-32] mm | MIC (µg/ml) [Range] [9]: 200 [200] µg/ml | Zone Size (mm) [Range] [10]: 0 [0] mm | MIC (µg/ml) [Range] [11]: 200 [200] µg/ml | MIC (µg/ml) [Range] [12]: 0.39 [0.39] µg/ml | Zone Size (mm) [Range] [13]: 0 [0] mm | MIC (µg/ml) [Range] [14]: 0.39 [0.39-1.56] µg/ml | MIC (µg/ml) [Range] [18]: 12.5 [12.5-25] µg/ml | MIC (µg/ml) [Range] [15]: 200 [200] µg/ml | MIC (µg/ml) [Range] [16]: > 200 [>200] µg/ml

Source: article PMC12717099, “Peptidoglycan recruitment by a penicillin binding protein” (Nature Communications, 2025)
